This assay deals with glutathione S-transferase (Schistosoma japonicum GST tag binding GSH beads). Put plainly: GST–glutathione bead interaction interference profiling – biochemical, multiplex beads, flow cytometry, profiling panel (AID 1769).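 Further: target is a GST and green fluorescent protein fusion captured on glutathione beads.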 Particulars: flow cytometry fluorescence.
For `Cc1cc2nc3c(=O)[nH]c(=O)[nH]c3nc2c([N+](=O)[O-])c1N`, the EC50 – broadly, the concentration at which the effect is half-maximal – was 1.18 µM.
The same measure for `NS(=O)(=O)c1ccc(Nc2nc(-c3ccc(O)cc3O)cs2)cc1`: 2.29 µM; for `COc1ccccc1Nc1nc(-c2c(C)nc3ncccn23)cs1`: 12.2 µM.
The result for `CCN1/C(=C/C=C/c2oc3ccc4ccccc4c3[n+]2CC)Oc2ccc3ccccc3c21` reads 0.223 µM; that for `COc1cc2c(cc1OC)-c1cc(NC3CCCCCC3)nc(=O)n1CC2`, 21 µM.
For `Cn1cccc1/C=C1\SC(=S)N(NC(=O)c2ccccc2Cl)C1=O`, the 50% effective concentration (EC50) was 51.7 µM.
The same measure for `Cc1nc2ncccn2c1-c1csc(Nc2ccc(O)cc2)n1`: 0.265 µM.
The same measure for `COc1ccc(Nc2nc(-c3c(C)nc4ncccn34)cs2)cc1`: 8.39 µM; for `COCCCNc1nc(=S)[nH]c2cc(OC)c(OC)cc12`: 15.2 µM.
The same measure for `O=C(OCC1O[C@@H](OC(=O)c2cc(O)c(O)c(O)c2)[C@@H](OC(=O)c2cc(O)c(O)c(O)c2)[C@@H](OC(=O)c2cc(O)c(O)c(O)c2)[C@@H]1OC(=O)c1cc(O)c(O)c(O)c1)c1cc(O)c(O)c(O)c1` (stereo not given in full): 0.951 µM.
For `Oc1ccc(/C=N/NC(=S)N/N=C/c2ccc(O)cc2)cc1`, the EC50 is 13.4 µM.
The result for `COc1ccc2c(C)nc(N/C(N)=N/S(=O)(=O)c3ccc(C)cc3)nc2c1` reads 7.51 µM.
The result for `Cn1c(O)c(C2=c3ccccc3=NC2=O)[nH]c1=S` reads 13.4 µM; that for `CCCCn1c(O)c(/C=C/C=C/C=Nc2ccccc2)sc1=S`, 0.576 µM; that for `O=C(CN1CCN(c2ccc(O)cc2)CC1)Nc1cc(S(=O)(=O)N2CCCCC2)ccc1Cl`, 19.1 µM.
The same measure for `COc1ccc2nc(C)cc(SCC(=O)N/N=C/c3ccc(O)c(O)c3)c2c1`: 15.7 µM.
Take `COc1ccc(NC(=O)c2cc3nc(-c4ccccc4)cc(C)n3n2)cc1OC`: the EC50 was 2.85 µM.
Consider `CCNC(=S)N=Nc1c(O)[nH]c2ccc([N+](=O)[O-])cc12`, for which the concentration for a half-maximal effect (EC50) was 1.93 µM.
In the case of `Cc1cccc(/C=N/N(CCO)C2=NS(=O)(=O)c3ccccc32)c1`, the EC50 is 60.2 µM.
With `CCn1cc(C(=O)O)c(=O)c2cc(F)c(N/N=C/c3ccccc3[N+](=O)[O-])cc21`, the EC50 was 2.67 µM.
The result for `CCOc1ccc2c(c1)c(N=NC(=N)N)c(O)n2C` reads 25.6 µM; that for `Cc1cc(N/N=C/c2ccc(O)cc2O)nc(-n2nc(C)cc2C)n1`, 0.831 µM.
Turning to `Cc1ccc(O)c(N=Cc2cc(Cc3ccccc3)cc([N+](=O)[O-])c2O)c1`, the EC50 is 8.29 µM.
The same measure for `CC(=O)Oc1ccc2c(c1)Oc1cc(OC(C)=O)ccc1C21OC(=O)c2ccccc21`: 1.51 µM; for `Cc1ccc(-c2csc3nc4c5ccccc5c(NCCCN5CCOCC5)nn4c(=O)c23)cc1`: 0.346 µM.
The result for `O=c1c2ccccc2nc2c3ccccc3c(NCCO)nn12` reads 3.55 µM.
Take `COC(=O)COc1ccc(/C=N/NC(=O)c2ccc(N(Cc3ccccc3)S(C)(=O)=O)cc2)cc1`: the EC50 was 4.09 µM.
The same measure for `O=C(C[n+]1cccc2ccccc21)c1ccc(NC(=O)c2ccccc2)cc1`: 10.2 µM; for `O=C(CSc1ccc2nnc(-c3cccc(F)c3)n2n1)N1CCCc2ccccc21`: 0.16 µM; for `O=C(CSc1ccc2nnc(-c3ccccn3)n2n1)Nc1nccs1`: 13 µM.
In the case of `CCOc1cc(/C=N/NC(=O)c2cc(-c3cccnc3)nc3ccccc23)ccc1O`, the concentration giving a half-maximal response (EC50) is 8.65 µM.
The same measure for `Nc1c(S(=O)(=O)c2cccs2)c2nc3ccccc3nc2n1/N=C/c1cccc(O)c1`: 0.355 µM; for `NC(=S)N=Nc1c(O)[nH]c2cc(F)c(F)cc12`: 15.6 µM; for `Cc1cc2[nH]c3c(c[n+](C)c4ccccc34)c2cc1C`: 9.45 µM.
The same measure for `CC(C)NC(=S)N=Nc1c(O)[nH]c2ccc([N+](=O)[O-])cc12`: 1.43 µM; for `O=C(O)c1cc(C(=O)O)cc(-c2ccc(/C=c3/sc4nc5ccccc5n4c3=O)o2)c1`: 11.9 µM; for `O=C(O)CC/C(=C\c1ccc(N2CCCC2)c([N+](=O)[O-])c1)c1nc2ccccc2s1`: 37 µM.
The result for `O=C(NCc1cccs1)c1cccn2c(=O)c3sccc3nc12` reads 0.664 µM; that for `COc1ccc(OC)c(S(=O)(=O)Nc2ccc(O)c(Sc3ncn[nH]3)c2)c1`, 4.38 µM; that for `CC(=O)N1C(=O)/C(=C2\SC(=S)N(NC(=O)c3ccc(O)cc3)C2=O)c2ccccc21`, 4.13 µM.
Regarding `COc1cc2nc(=S)n(CCCN3CCOCC3)c(N)c2cc1OC`, the EC50 is 11 µM.
The result for `Cn1c(SCCOc2ccccc2F)nc2ccccc2c1=O` reads 4.72 µM; that for `COc1cc(N2CCCC2)c(OC)cc1/C=C(/C#N)c1cccc(F)c1`, 1.71 µM; that for `CC(=O)Nc1ccc(Nc2ccc3c4c(cc(=O)n3C)-c3ccccc3C(=O)c24)cc1`, 0.151 µM.
As to `COC(=O)c1cc(NC(=O)c2cccc(Cl)c2)c(=O)oc1/C=C/Nc1cc(C)cc(C)c1`, the EC50 is 0.567 µM.
The result for `N#Cc1ccc2ccn(CC(=O)N3CCCc4ccccc43)c2c1` reads 2.4 µM.
The result for `O=C(Nc1cc(S(=O)(=O)Nc2ccccc2Cl)ccc1O)c1sc2cc(Cl)ccc2c1Cl` reads 3.66 µM; that for `Cc1cc(C)cc(N2C(=O)NC(=O)/C(=C\C=C\c3ccco3)C2=O)c1`, 4.38 µM.
The same measure for `CN1CCN(S(=O)(=O)c2cccc(C(=O)Nc3sc4c(c3C(N)=O)CCCC4)c2)CC1`: 19.8 µM.
Consider `NS(=O)(=O)c1ccc(CCN2C(=O)/C(=C\c3ccc(Cl)cc3)SC2=S)cc1`, for which the EC50 is 6.03 µM.
The same measure for `COc1ccc(S(=O)(=O)N2CCOCC2)cc1NC(=O)COc1cccnc1[N+](=O)[O-]`: 64 µM; for `CCn1cc(C(=O)O)c(=O)c2cc(F)c(N/N=C/c3ccccc3)cc21`: 3.88 µM.
The same measure for `COc1cccc(C2CC(c3ccccc3)Nc3ncnn32)c1` (stereo not given): 6.49 µM; for `Cc1cc2nc3c(=O)n(C4CCCCC4)c(=O)[nH]c3nc2cc1N`: 6.99 µM.
The same measure for `Cc1nnc2ccc(-c3cccc(NC(=O)c4ccco4)c3)nn12`: 7.84 µM; for `COc1ccc(/C=N/n2c(N)c(S(=O)(=O)c3cccs3)c3nc4ccccc4nc32)cc1OC`: 0.612 µM.
On to `O=C(CNC(=O)Cc1ccccc1)N=Nc1c(O)n(Cc2ccc3c(c2)OCO3)c2ccccc12`, for which the 50% effective concentration (EC50) was 12 µM.
The result for `COc1cc2c(cc1OC)-c1cc(NC3CCCCCCC3)nc(=O)n1CC2` reads 20.5 µM; that for `COc1cccc2cc(-c3ccnc(=S)[nH]3)oc12`, 28.8 µM; that for `COc1ccc(/C=C(/C#N)C(=O)Nc2ccc(O)cc2)cc1C(=O)O`, 16.4 µM.
Turning to `O=c1c2ccccc2nc2c3ccccc3c(Cl)nn12`, the half-maximal effective concentration (EC50) was 2.04 µM.
Turning to `Fc1cccc(Nc2ncnc3[nH]ncc23)c1`, the concentration giving a half-maximal response (EC50) was 45.1 µM.
Regarding `O=C(O)c1cccc(-n2cccc2/C=C2/NC(=O)N(c3ccc(Cl)cc3)C2=O)c1`, the EC50 is 2.25 µM.
The result for `COc1ccc(N=C2S/C(=C\c3ccc(N4CCOCC4)o3)C(=O)N2CCc2c[nH]c3ccccc23)cc1` reads 0.0269 µM.
On to `Oc1ccc(C2=Nn3c(nnc3-c3ccco3)SC2)cc1O`, for which the EC50 was 1.29 µM.
The same measure for `Nc1nc2c(c(=O)[nH]1)C(c1cccc3ccccc13)C1=C(N2)c2ccccc2C1=O` (stereo not given): 2.59 µM.
The result for `O=C(N/N=C(\c1ccccc1)c1ccccn1)c1cccc([N+](=O)[O-])c1` reads 38.1 µM; that for `O=C(Nc1cccc(Cl)c1)Nc1ccnc(-c2cccnc2)n1`, 0.499 µM; that for `CCN(CC)c1ccc(/C=C/C(=O)c2ccc(Br)cc2)cc1`, 11.2 µM.
The result for `COc1ccc(-c2csc(NC(=S)NC(=O)c3cccs3)n2)cc1OC` reads 1.33 µM.
Take `CSc1nc2ccc(NC(=O)C3CC(=O)N(Cc4ccco4)C3)cc2s1` (stereo not given): the EC50 was 46.9 µM.
As for `O=c1c2ccccc2nc2c3ccccc3c(NCc3ccccn3)nn12`, the concentration giving a half-maximal response (EC50) was 3.76 µM.
The result for `Nc1c([N+](=O)[O-])cc(-c2cnc[nH]2)cc1[N+](=O)[O-]` reads 0.391 µM.
The same measure for `O=S1(=O)N=C(N(CCO)/N=C/c2ccccc2)c2ccccc21`: 51.9 µM.
The result for `COc1cc2ccccc2cc1C(=O)NC(=S)Nc1cccc(C(=O)O)c1` reads 9.3 µM.
On to `Cc1c(CCC(=O)O)c(=O)oc2cc3occ(-c4ccc(F)cc4)c3cc12`, for which the concentration for a half-maximal effect (EC50) is 70.5 µM.
The result for `O=C(COC(=O)c1ccc2c(c1[N+](=O)[O-])C(=O)c1ccccc1C2=O)NC1CC1` reads 28 µM; that for `N#Cc1c2nc3ccccc3nc2n2cc(NC(=O)c3ccc(F)cc3)ccc12`, 0.95 µM; that for `C/C(=N\Nc1ccc(S(N)(=O)=O)cc1[N+](=O)[O-])c1ccc2c(c1)OCO2`, 1.4 µM.
The same measure for `Nc1c(C(=O)C2CC2)sc2nc(-c3cccs3)cc(C(F)(F)F)c12`: 19.3 µM.
The same measure for `COc1ccc(C(=O)N/N=c2\oc3ccccc3cc2C(N)=O)cc1`: 4.62 µM; for `CSc1nc(Cc2ccccc2)cc(=O)[nH]1`: 31.3 µM; for `O=c1c2c(-c3ccccc3)csc2nc2c3ccccc3c(NCCN3CCOCC3)nn12`: 1.84 µM.
Consider `Cc1ccc2c(c1)c1nnc(SCC(=O)N3CCCc4ccccc43)nc1n2CC(=O)O`, for which the EC50 is 69.6 µM.
With `CCC(C)N1C(=O)/C(=C/c2c(NCCCOC(C)C)nc3c(C)cccn3c2=O)SC1=S` (stereo not given), the EC50 was 0.201 µM.
The result for `COc1cc(/C=N/NC(=O)CN(Cc2ccccc2)S(=O)(=O)c2ccc3c(c2)OCCO3)ccc1O` reads 20.3 µM; that for `Cc1cc(=O)[nH]c2c(N=Nc3ccc(O)cc3)c(N)nn12`, 1.4 µM.
As to `Cc1cccc(S(=O)(=O)c2c(N)n(/N=C/c3cccnc3)c3nc4ccccc4nc23)c1`, the half-maximal effective concentration (EC50) was 3.42 µM.
The same measure for `O=C(CSc1ccc2nnc(-c3cccs3)n2n1)N1CCCC1`: 1.3 µM.
Take `NC(=S)N=Nc1c(O)[nH]c2c(Br)cc(Br)cc12`: the EC50 was 69.1 µM.
Regarding `COc1cc2[nH]c(=S)nc(NC3CCCCCC3)c2cc1OC`, the half-maximal effective concentration (EC50) is 1.32 µM.
Consider `O=C(Nc1cccc(-c2nnc(-c3ccco3)o2)c1)c1ccccc1`, for which the EC50 is 40.8 µM.
The result for `CN(/N=C/c1ccc(Br)o1)C1=NS(=O)(=O)c2ccccc21` reads 0.184 µM; that for `CCCc1nc2oc3c(=O)[nH]cnc3c2c2c1CCCC2`, 2.05 µM; that for `N#CCc1c(C#N)c(N)nc(N2CCN(C=O)CC2)c1C#N`, 15.7 µM.

The values are drawn from PubChem BioAssay AID1769 (NMMLSC, 2009).
